Results on one compound are retold here after article PMC3625590, “NBM-T-L-BMX-OS01, Semisynthesized from Osthole, Is a Novel Inhibitor of Histone Deacetylase and Enhances Learning and Memory in Rats” (Evidence-based Complementary and Alternative Medicine : eCAM, 2013).

Experiment [1] deals with primary hippocampal neurons. Description: Neurite outgrowth by immunocytochemistry. In kind it is cell-based, Sprague-Dawley rats. As to the method:
The primary hippocampal culture was prepared as described previously. To culture embryonic hippocampal primary neurons, pregnant Sprague-Dawley rats were purchased from the National Laboratory Center in Taiwan. The hippocampal tissue from the embryos of the Sprague-Dawley rats (E19) was dissociated with 100 U/mL of papain (Sigma-Aldrich) and plated onto poly-L-lysine-coated coverslips at a density of 1 × 10^4 cells/cm^2 with a minimal essential medium containing 5% calf serum, 5% horse serum, and 50 ng/mL insulin-transferrin-selenite (Sigma-Aldrich). Three hours after plating, the medium was replaced with 2% of a B27-neurobasal medium (Invitrogen, Carlsbad, CA, USA) containing 0.5 mM glutamine and 12.5 μM glutamate.
(§1) Supplemental Materials and Methods
(§2) 2.1. HEK293T cells. HEK293T cells were maintained in Dulbecco’s modified Eagle’s medium (Invitrogen) supplemented with 10% fetal calf serum (Invitrogen). Cultures were maintained in a humidified 5% CO2-95% air atmosphere at 37°C.
2.2. Immunocytochemistry. Cultured hippocampal neurons were fixed with 4% paraformaldehyde for 15 min and permeablized with 0.1% Triton X-100 for 20 min at room temperature (RT). The primary Mouse anti-β III tubulin and anti-actin (Millipore) Abs were added for 1 h at RT. […]
(§3) The lysate was resolved by 8% SDS-PAGE. […] The protein bands were quantified using the NIH Image J Software. […]

Another experiment deals with HEK293T cells. Description: CRE promoter-luciferase assay. In kind it is cell-based. As to the method:
as §1, §2
2.2. Immunocytochemistry. Cultured hippocampal neurons were fixed with 4% paraformaldehyde for 15 min and permeablized with 0.1% Triton X-100 for 20 min at room temperature (RT). The primary Mouse anti-β III tubulin and anti-actin (Millipore) Abs were added for 1 h at RT. After wash, Alexa Fluor 488 […] Ab (Molecular Probes, Europe BV, Leiden, Netherlands) were incubated with cells for 1 h at RT. Coverslips were mounted, and images were obtained by using a Axio Observer D1 microscope (Zeiss, Jena, Germany). Neuronal process longer than […] is defined as neurites.
2.3. Western blot. […]
as §3
FBS. […] The activity of firefly luciferase was measured as firefly luciferase luminescence after reaction with luciferase reagent for 15 min. Next, the activity of Renilla luciferase is measured as Renilla luciferase luminescence after reaction with Stop & Glo reagent for 15 min.
The ratio of firefly luciferase activity to Renilla luciferase activity was calculated and normalized to vector control.

For the next experiment, the system named is HDAC8. Description: HDAC8 activity assay (Fluor-de-Lys) in brain nuclear extracts after behavioural tests. It is filed as in vivo, Sprague-Dawley rats. To be noted: 5 mg/kg/d i.p., compared with trained-control animals. As to the method: For the HDAC8 activity assay, the deacetylase activity of HDAC8 was measured using the commercially available Fluor-de-Lys-HDAC8 deacetylase substrate (Enzo, New York, NY, USA) according to the manufacturer instructions. […] The homogenate was centrifuged at 1000 ×g for 10 min to obtain the nuclei pellet. […] To determine the HDAC activity, 10 μg of nuclear extracts was incubated with a specific substrate (100 μM) for 30 min at 37°C, followed by the addition of a developer solution for 30 min at 37°C. […] Data were normalized to swimming control, footshock control, and nontrained-control animals.

The subject of a further experiment is Sco-induced amnesia rats. Description: Novel object recognition, Sco-induced memory impairment. It is filed as in vivo, Sprague-Dawley rats. As to conditions: Sco 1.5 mg/kg/d; BMX or SAHA 5 mg/kg/d i.p.; 8 h. As to the method: SAHA was supplied by NatureWise Biotech and Medicals Corporation (Taipei, Taiwan). […] (St. Louis, MO, USA). The BMX and SAHA stock (100 mg/mL) was dissolved in DMSO and diluted with saline to a final concentration of 0.5 mg/mL (in 0.5% DMSO/saline). […] SD rats were randomly divided into 3 groups. For the naïve animal experiments, the BMX-injected or SAHA-injected groups were injected with BMX (5 mg/kg/d) or SAHA (5 mg/kg/d) intraperitoneally 7 d prior to behavioral experiments and during the experimentation. The control group received the 0.5% DMSO/saline injection. The injection volume was 10 μL/g of body weight. The injections were performed once per day. For the amnesia experiment, the protocol was adopted from previous studies with modifications. […] The control group received the 0.5% DMSO/saline injection. The injection volume was 10 μL/g of body weight. […] The method used was adopted from that of a previous study with modifications. During familiarization, rats were allowed to explore 2 identical objects in an open field box (90 × 70 × 60 cm) for 5 min. The criteria used for exploration were a distance less than 1.5 cm between the rat and the object or direct contact with the object. […] The time that each rat spent exploring the 2 objects during a 5 min period was recorded. […]

Structures are written as SMILES.

For `O=C(CCCCCCC(=O)Nc1ccccc1)NO` [SAHA, suberoylanilide hydroxamic acid, reference compound], in experiment [1], the “neurite branch and neurite length” value is given as “increased the neurite length in particular”. Further, the CRE-mediated promoter activity result in the experiment on HEK293T cells is given as “increased”. Moreover, the “HDAC8 activity in amygdala” value in the experiment on HDAC8 (7 days after footshock) was “did not have increased HDAC8 activity”. In addition, the “HDAC8 activity in hippocampus” value in the experiment with HDAC8 (after novel object recognition task) is “did not have further increased HDAC8 activity”; in the experiment with HDAC8 (after water-maze probe trial), “did not increase HDAC8 activity”. The “exploratory preference for the novel object (NO)” value in the experiment with Sco-induced amnesia rats is given as “showed no exploratory preference for the NO”.
